US8012979B2, “Compounds and their uses 707” (AstraZeneca AB, priority 2007, dated 2011)

What follows are compounds tested against T1, human active recombinant p38α-6His tagged (Homo sapiens, UniProt Q16539) (assay: p38 Alpha Enzyme Assay (AlphaScreen, biotinylated-ATF2 substrate)). Conditions: pre-incubated 4 hours at 37° C., reaction initiated with ATP; 0.5 nM enzyme; read-out: p38 pIC50 (converted).
T1 construct: 6His
Type: biochemical
Experimental: The ability of the compounds of formula (I) to inhibit p38 kinase may be determined using the following biological assay:
Enzyme assays were performed in polypropylene 96 well plates. The following solutions were added to each well; 10 μL of compound dilutions in assay buffer (20 mM HEPES pH 7.4, containing 20 mM magnesium acetate, 0.005% (w/v) Tween-20, 10 mM DTT) containing 1% (v/v) DMSO or assay buffer containing 1% (v/v) DMSO alone, 70 μL of assay buffer containing 36 nM substrate (biotinylated-ATF2) and 10 μL of an appropriate dilution of human active recombinant p38α-6His tagged. Depending on batch of p38, an appropriate dilution was typically a 5 nM solution to give a final enzyme concentration of 0.5 nM. At this stage, background control wells also received 50 μL of AlphaScreen quench buffer (10 mM HEPES pH 7.4 containing 100 mM EDTA, 0.2% (w/v) bovine serum albumin). The plate was covered, pre-incubated for 4 hours at 37° C. and the enzyme reaction initiated by addition of 10 μL 1 mM ATP. After incubation for a further 45 minutes at 37° C., the reaction was stopped by addition of 50 μL quench reagent and 50 μL of the quenched reaction mixture transferred to an opaque, white 96-well plate. Detection reagent, 25 μL of 10 mM HEPES pH 7.4 containing 100 mM EDTA, 0.2% (w/v) bovine serum albumin, 0.3 nM anti phosphoATF2 antibody and 25 μg/mL of ‘AlphaScreen protein A acceptor and donor beads’ (PerkinElmer Inc.), was added to all wells in a darkened room, the plate sealed and left in the dark for at least 5 hours before AlphaScreen readings were taken using a Perkin Elmer EnVision reader. Total, uninhibited activity was determined from assays performed in each assay plate. The mean control in the absence of p38 activity was subtracted from each well. Data were expressed as percent inhibition of total activity using equation 1. Percent Inhibition=100*(1−Test/Control) Eq.1 Where . . . . • Test=p38 kinase activity in the presence of compound • Control=p38 kinase activity in the absence of compound.
pIC50 is defined as the logarithm of the reciprocal of the concentration of compound required for 50% reduction in total p38 kinase activity.

T1 sequence (Q16539 whole entry): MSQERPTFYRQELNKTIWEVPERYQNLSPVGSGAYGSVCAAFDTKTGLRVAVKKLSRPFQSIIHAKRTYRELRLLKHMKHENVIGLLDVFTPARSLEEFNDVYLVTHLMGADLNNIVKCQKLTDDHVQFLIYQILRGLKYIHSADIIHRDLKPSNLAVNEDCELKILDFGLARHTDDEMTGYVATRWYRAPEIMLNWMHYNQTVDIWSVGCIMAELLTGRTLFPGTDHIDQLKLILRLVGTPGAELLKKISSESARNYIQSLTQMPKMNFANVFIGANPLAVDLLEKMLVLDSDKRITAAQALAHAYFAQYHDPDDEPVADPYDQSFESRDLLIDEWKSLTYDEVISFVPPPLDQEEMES

Row | SMILES | IC50 [nM]
1 | Cc1ccc(C(=O)NC2CC2)cc1-c1ccc2c(=O)n(CCCN3CCCC3)ccc2c1 [Example 13, N-Cyclopropyl-4-methyl-3-[1-oxo-2-(3-pyrrolidin-1-yl-propyl)-1,2-dihydro-isoquinolin-6-yl]-benzamide] | 316
2 | Cc1ccc(C(=O)NC2CC2)cc1-c1ccc2c(=O)n(CC3CC3)cc(CN3CCN[C@@H](C)C3)c2c1 [Example 63, (S)—N-Cyclopropyl-3-(2-(cyclopropylmethyl)-4-((3-methylpiperazin-1-yl)methyl)-1-oxo-1,2-dihydroisoquinolin-6-yl)-4-methylbenzamide] | 1
3 | Cc1ccc(C(=O)NC2CC2)cc1-c1ccc2c(=O)n(Cc3ccc(OCCCN(C)C)nc3)ccc2c1 [Example 29, N-Cyclopropyl-3-(2-((6-(3-(dimethylamino)propoxy)pyridin-3-yl)methyl)-1-oxo-1,2-dihydroisoquinolin-6-yl)-4-methylbenzamide] | 1.58
4 | Cc1ccc(C(=O)NC2CC2)cc1-c1ccc2c(=O)n(CC3CC3)cc(CN3CCCNCC3)c2c1 [Example 70, N-Cyclopropyl-3-(2-cyclopropylmethyl-4-[1,4]diazepan-1-ylmethyl-1-oxo-1,2-dihydro-isoquinolin-6-yl)-4-methyl-benzamide] | 0.158
5 | Cc1c(F)cc(C(=O)NC2CC2)cc1-c1ccc2c(=O)n(CC3CC3)cc(CN3CCCN(CCO)CC3)c2c1 [Example 78, N-Cyclopropyl-3-(2-(cyclopropylmethyl)-4-((4-(2-hydroxyethyl)-1,4-diazepan-1-yl)methyl)-1-oxo-1,2-dihydroisoquinolin-6-yl)-5-fluoro-4-methylbenzamide] | 0.158
6 | Cc1c(F)cc(C(=O)NC2CC2)cc1-c1ccc2c(=O)n(Cc3ccc(S(C)(=O)=O)cc3)cc(CN3CCN(C)CC3)c2c1 [Example 112, N-Cyclopropyl-3-fluoro-4-methyl-5-(4-((4-methylpiperazin-1-yl)methyl)-2-(4-(methylsulfonyl)benzyl)-1-oxo-1,2-dihydroisoquinolin-6-yl)benzamide] | 0.126
7 | Cc1ccc(C(=O)NC2CC2)cc1-c1ccc2c(=O)n(CC3CC3)cc(C(=O)N3CCN(C)CC3)c2c1 [Example 39, N-Cyclopropyl-3-(2-(cyclopropylmethyl)-4-(4-methylpiperazine-1-carbonyl)-1-oxo-1,2-dihydroisoquinolin-6-yl)-4-methylbenzamide] | 5.01
8 | Cc1ccc(C(=O)NC2CC2)cc1-c1ccc2c(=O)n(CC3CC3)cc(CN3CCC(N)CC3)c2c1 [Example 66, 3-(4-((4-Aminopiperidin-1-yl)methyl)-2-(cyclopropylmethyl)-1-oxo-1,2-dihydroisoquinolin-6-yl)-N-cyclopropyl-4-methylbenzamide] | 0.158
9 | Cc1ccc(C(=O)NC2CC2)cc1-c1ccc2c(=O)n(Cc3ccccn3)ccc2c1 [Example 126, N-Cyclopropyl-4-methyl-3-(1-oxo-2-(pyridin-2-ylmethyl)-1,2-dihydroisoquinolin-6-yl)benzamide] | 10
10 | Cc1ccc(C(=O)NC2CC2)cc1-c1ccc2c(=O)n(Cc3ccccc3)cc(C(=O)NCCN3CCCCC3)c2c1 [Example 48, 2-Benzyl-6-(5-(cyclopropylcarbamoyl)-2-methylphenyl)-1-oxo-N-(2-(piperidin-1-yl)ethyl)-1,2-dihydroisoquinoline-4-carboxamide] | 2.51
11 | Cc1ccc(C(=O)NC2CC2)cc1-c1ccc2c(=O)n(Cc3ccc(OCCN(C)C)cc3)ccc2c1 [Example 32, N-Cyclopropyl-3-(2-(4-(2-(dimethylamino)ethoxy)benzyl)-1-oxo-1,2-dihydroisoquinolin-6-yl)-4-methylbenzamide] | 0.501
12 | CN[C@@H]1CCN(Cc2cn(CC3CC3)c(=O)c3ccc(-c4cc(C(=O)NC5CC5)cc(F)c4C)cc23)C1 [Example 106, (R)—N-Cyclopropyl-3-(2-(cyclopropylmethyl)-4-((3-(methylamino)pyrrolidin-1-yl)methyl)-1-oxo-1,2-dihydroisoquinolin-6-yl)-5-fluoro-4-methylbenzamide] | 0.316
13 | Cc1ccc(C(=O)NC2CC2)cc1-c1ccc2c(=O)n(Cc3ccc(OCCN4CCCC4)nc3)ccc2c1 [Example 31, N-Cyclopropyl-4-methyl-3-(1-oxo-2-((6-(2-(pyrrolidin-1-yl)ethoxy)pyridin-3-yl)methyl)-1,2-dihydroisoquinolin-6-yl)benzamide] | 0.631
14 | Cc1ccc(C(=O)NC2CC2)cc1-c1ccc2c(=O)n(Cc3ccc(N4CCN(C)CC4)cc3)ccc2c1 [Example 4, N-Cyclopropyl-4-methyl-3{2-[4-(4-methyl-piperazin-1-yl)-benzyl]-1-oxo-1,2-dihydro-isoquinolin-6-yl}-benzamide] | 1.26
15 | Cc1ccc(C(=O)NC2CC2)cc1-c1ccc2c(=O)n(Cc3ccc(CNC(C)(C)C)cc3)ccc2c1 [Example 28, 3-(2-(4-((Tert-butylamino)methyl)benzyl)-1-oxo-1,2-dihydroisoquinolin-6-yl)-N-cyclopropyl-4-methylbenzamide] | 1
16 | Cc1ccc(C(=O)NC2CC2)cc1-c1ccc2c(=O)n(Cc3ccc(C(=O)N(C)C)cc3)cc(CN3CCCN(C)CC3)c2c1 [Example 105, N-Cyclopropyl-3-(2-(4-(dimethylcarbamoyl)benzyl)-4-((4-methyl-1,4-diazepan-1-yl)methyl)-1-oxo-1,2-dihydroisoquinolin-6-yl)-4-methylbenzamide] | 0.158
17 | Cc1c(F)cc(C(=O)NC2CC2)cc1-c1ccc2c(=O)n(CC3CC3)cc(CN3CCNC[C@H]3CO)c2c1 [Example 108, (S)—N-Cyclopropyl-3-(2-(cyclopropylmethyl)-4-((2-(hydroxymethyl)piperazin-1-yl)methyl)-1-oxo-1,2-dihydroisoquinolin-6-yl)-5-fluoro-4-methylbenzamide] | 0.0631
18 | Cc1c(F)cc(C(=O)NC2CC2)cc1-c1ccc2c(=O)n(CC3CC3)cc(CN3CC[C@@H](N)C3)c2c1 [Example 109, (R)-3-(4-((3-Aminopyrrolidin-1-yl)methyl)-2-(cyclopropylmethyl)-1-oxo-1,2-dihydroisoquinolin-6-yl)-N-cyclopropyl-5-fluoro-4-methylbenzamide] | 1.58
19 | Cc1ccc(C(=O)NC2CC2)cc1-c1ccc2c(=O)n(Cc3cccc(OCCCN(C)C)c3)ccc2c1 [Example 10, N-Cyclopropyl-3-{2-[3-(3-dimethylamino-propoxy)-benzyl]-1-oxo-1,2-dihydro-isoquinolin-6-yl}-4-methyl-benzamide] | 2
20 | Cc1ccc(C(=O)NC2CC2)cc1-c1ccc2c(=O)n(Cc3ccc(CN(C)C)cc3)cc(C)c2c1 [Example 95, N-Cyclopropyl-3-(2-(4-((dimethylamino)methyl)benzyl)-4-methyl-1-oxo-1,2-dihydroisoquinolin-6-yl)-4-methylbenzamide] | 2.51
21 | Cc1ccc(C(=O)NC2CC2)cc1-c1ccc2c(=O)n(C(C)c3ccccc3)ccc2c1 (centres unmarked) [Example 121, N-Cyclopropyl-4-methyl-3-(1-oxo-2-(1-phenylethyl)-1,2-dihydroisoquinolin-6-yl)benzamide] | 3.98
22 | Cc1ccc(C(=O)NC2CC2)cc1-c1ccc2c(=O)n(CC3CC3)cc(C(=O)N3CCN(CCN(C)C)CC3)c2c1 [Example 46, N-Cyclopropyl-3-(2-(cyclopropylmethyl)-4-(4-(2-(dimethylamino)ethyl)piperazine-1-carbonyl)-1-oxo-1,2-dihydroisoquinolin-6-yl)-methylbenzamide] | 25.1
23 | Cc1ccc(C(=O)NC2CC2)cc1-c1ccc2c(=O)n(Cc3ccncc3)cc(C(=O)N3CCC(N4CCCC4)CC3)c2c1 [Example 54, N-Cyclopropyl-4-methyl-3-(1-oxo-2-(pyridin-4-ylmethyl)-4-(4-(pyrrolidin-1-yl)piperidine-1-carbonyl)-1,2-dihydroisoquinolin-6-yl)benzamide] | 25.1
24 | Cc1c(F)cc(C(=O)NC2CC2)cc1-c1ccc2c(=O)n(Cc3ccc(S(C)(=O)=O)cc3)cc(CN3CCN(C)[C@@H](CO)C3)c2c1 [Example 115] | 0.1
25 | Cc1c(F)cc(C(=O)NC2CC2)cc1-c1ccc2c(=O)n(CC3CC3)cc(CN3CCC(N)CC3)c2c1 [Example 83, 3-(4-((4-Aminopiperidin-1-yl)methyl)-2-(cyclopropylmethyl)-1-oxo-1,2-dihydroisoquinolin-6-yl)-N-cyclopropyl-5-fluoro-4-methylbenzamide] | 0.0794
26 | Cc1c(F)cc(C(=O)NC2CC2)cc1-c1ccc2c(=O)n(CC3CC3)cc(CN3CCNC(CO)CC3)c2c1 (centres unmarked) [Example 127, N-Cyclopropyl-3-[2-cyclopropylmethyl-4-(5-hydroxymethyl-[1,4]diazepan-1-ylmethyl)-1-oxo-1,2-dihydro-isoquinolin-6-yl]-5-fluoro-4-methyl-benzamide] | 0.158
